Experimental findings from PubChem BioAssay (NCI) are described below.

Common to all, as to assay: growth of human tumour cells (NCI), 48 h
The test system of experiment [1] is HCC-2998 colon.
For experiment [2], the system named is NCI-H23 lung.
The test system of experiment [3] is K-562 leukemia.
Experiment [4] relates to PC-3 prostate.
In experiment [5] the test system is BT-549 breast.
The test system of experiment [6] is SNB-75 CNS.
Experiment [7] has as its system UACC-257 melanoma.
In experiment [8] the test system is M14 melanoma.
The subject of experiment [9] is NCI-H522 lung.
The test system of experiment [10] is NCI-H226 lung.
In experiment [11] the test system is NCI/ADR-RES ovarian.
Experiment [12] deals with HOP-92 NSCLC.

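Tested at 5 concentrations; 48 h exposure; 96-well plates; endpoints linearly interpolated, else capped at highest concentration. TGI is the concentration that stops growth completely.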 Where a SMILES comes first, the peptide text is derived from it. [ ]: non-standard residue; d: D form. The star is where a group is joined. Tyr(3-Br) = N[C@@H](Cc1ccc(O)c(Br)c1)C(=O)O; Boc = CC(C)(C)OC(=O)*

As to `Cc1cccc(CC(Cc2c(C)cccc2C(=O)O)C(=O)O)c1` (centres undefined), the TGI in experiment [1], in experiment [2], in experiment [3], in [4], in [5] and in experiment [6] was above 100 µM in each case. For the same compound, the TGI in [7], in experiment [8], in [9], in experiment [10] and in experiment [11] was above 100 µM throughout.
For the compound `COc1cc(NC(C)=O)ccc1C(=O)NN1C(=O)C(Cl)C1c1ccco1` (centres undefined), the TGI in [2], in [3], in [4], in experiment [12], in [5] and in [6] was above 100 µM throughout. The TGI in experiment [8], in experiment [9], in [10] and in experiment [11] was above 100 µM in each case.
For the compound `Cc1ccc2c(sc(-c3ccc4c(c3)sc(-c3ccc5c(c3)sc(-c3ccc(N(C)C)cc3)[n+]5C)[n+]4C)[n+]2C)c1S(=O)(=O)O` (tested in a mixture with another compound), the TGI in experiment [1], in experiment [2], in experiment [3], in experiment [4], in experiment [12] and in experiment [5] was above 100 µM each time. In addition, the TGI in [6], in experiment [7], in experiment [8], in [9] and in experiment [11] was above 100 µM throughout.
Take `N#CC(C#N)=C(N)/C(C#N)=C/c1ccc2ccccc2n1`: the TGI in [1] is above 100 µM; in [2], above 100 µM; in experiment [3], above 100 µM; in experiment [4] it was 79.4 µM; in experiment [12] it was above 100 µM; in experiment [5] it was 91.1 µM. Besides, the TGI in [6], in experiment [7], in experiment [8], in experiment [10] and in [11] was above 100 µM throughout.
For the compound `COC(=O)[C@H](Cc1ccc(O)c(Br)c1)NC(=O)[C@H](Cc1ccc(O)cc1)NC(=O)OC(C)(C)C` (Boc-Tyr-[Tyr(3-Br)]-OMe), the TGI in experiment [1] was above 100 µM; in experiment [2], 71.5 µM; in experiment [3], above 100 µM; in [4], above 100 µM; in [12], 93 µM; in experiment [5], 98.1 µM. For the same compound, the TGI in experiment [6], in [7], in [8], in experiment [10] and in [11] was above 100 µM in each case.
Turning to `CCCCSC1=N/C(=C\c2ccc(N(C)C)cc2)C(NN)=N1`, the TGI in experiment [1], in [2], in [3], in experiment [4], in [12] and in experiment [5] was above 100 µM in each case. Further, the TGI in experiment [6], in experiment [7], in experiment [8], in experiment [9] and in experiment [11] was above 100 µM each time.
For the compound `C/C=C1/CN2CCC3(O)c4ccccc4N4C=C(C(=O)OC)C1CC2C43O` (centres undefined), the TGI in [1], in experiment [2], in [3], in [4], in [12] and in experiment [5] was above 100 µM throughout. The TGI in [6], in experiment [7], in [8], in experiment [9] and in experiment [11] was above 100 µM each time.
Turning to `O=C(N/N=C/c1ccc([N+](=O)[O-])o1)c1ccc(C(=O)N/N=C/c2ccc([N+](=O)[O-])o2)cc1`, the TGI in experiment [2], in [3], in experiment [4], in [12], in [5] and in [6] was above 100 µM in each case. For the same compound, the TGI in experiment [8], in experiment [9], in experiment [10] and in experiment [11] was above 100 µM each time.
Take `c1ccc(P(CCP(c2ccccn2)c2ccccn2)c2ccccc2)cc1`: the TGI is above 100 µM in [1]; above 100 µM in [2]; above 100 µM in experiment [3]; 72.6 µM in [4]; above 69.9 µM in [12]; above 100 µM in [5]. For the same compound, the TGI in experiment [6] was 54 µM; in [7], above 100 µM; in experiment [8], above 100 µM; in experiment [10], above 100 µM; in experiment [11], above 100 µM.
Consider `OC[C@]1(n2nc3ccccc3n2)OC[C@@H]1c1ccccc1`, for which the TGI in experiment [1] is above 100 µM; in [2], above 100 µM; in [3], above 100 µM; in experiment [4], above 100 µM; in experiment [12], above 100 µM; in experiment [5] it was 99.5 µM. For the same compound, the TGI was above 100 µM in [7]; above 100 µM in experiment [8]; 58.2 µM in experiment [9]; above 100 µM in [10]; above 100 µM in experiment [11].
Consider `CC1=CCC2C3(C)CCC2(C(C)C)C1C3` (centres undefined) (tested in a mixture with another compound), for which the TGI was 49.5 µM in [1]; above 100 µM in [2]; 99 µM in experiment [3]; above 100 µM in experiment [4]; 58.3 µM in experiment [12]; 45.8 µM in [5]. Also, the TGI was 77.5 µM in experiment [6]; 99.7 µM in [7]; 45.7 µM in experiment [8]; 39.3 µM in [9]; 37.7 µM in experiment [11].
Turning to `Cc1c2c(n(CCc3ccccc3)c1C)N(C)N=C(C#N)S2(=O)=O`, the TGI in experiment [1], in experiment [2], in experiment [4], in experiment [5], in experiment [6] and in experiment [7] was above 100 µM each time. Besides, the TGI in [8], in experiment [9], in [10] and in experiment [11] was above 100 µM throughout.
